Tests used:
[1] = given systemically; cited from earlier work
[2] = In vivo anesthetized rat model, radiolabelled Vitamin E in lung, 24 hour timecourse
Description: (§1) The in vivo assay employed in examples 2 and 3 was performed by the following general procedure. The compositions were administered to the lungs of anesthetized adult Sprague-Dawley rats by endotracheal cannula. At various times after administration of the compositions, the animals were sacrificed by overdosing with anesthetics. The lungs and serum were obtained from each rat for analysis. The lung tissue was minced and extracted with 2:1 chloroform:methanol. The serum was extracted with 2:1 chloroform:methanol. The serum was sampled to get an indication of the amount of pharmaceutically active substance being transported into general circulation.
(§2) Liposomes were prepared as described in section A with the addition of ^3 H-Vitamin E in the lipid mixture before evaporation. The following weight ratios of lipid and Vitamin E were used to prepare the liposomes:
(§3) DPPC:PC:PG:Cholesterol:Vitamin E [drawing 1] The chloroform was evaporated from the lipid/Vitamin E mixture by rotary evaporation. The dried lipid/Vitamin E mixture was rehydrated in MEM-Krebs to a concentration of 87 μg Vitamin E/ml. Alveolar surfactant protein SP-A was added to the liposome mixture to a concentration of 100 μg/ml.
(§4) The liposomes containing Vitamin E prepared as in Example I above were tested in vivo by administration to rats according to the procedure outlined above in section C. […]

[3] = In vivo anesthetized rat model, radiolabelled Vitamin E in serum, 24 hour timecourse
Description: as §1, §2, §3, §4

[4] = ASP activity (in vivo assay of Robertson, or in vitro surface tension assay); conditions: in combination as well as independently; result in words
Description: In this assay, the sample to be assessed is administered through an endotracheal tube to fetal rabbits or lambs delivered prematurely by Caesarian section. (These "preemies" lack their own alveolar surfactant, and are supported on a ventilator.) Measurements of lung Compliance, blood gases and ventilator pressure provide indices of activity.
Preliminary assessment of activity may also be made by an in vitro assay, for example that of Kihg, R. J., et al, Am J Physiol (1972) 223:715-726, or that illustrated below of Hawgood, et al, which utilizes a straightforward measurement of surface tension at an air-water interface when the protein is mixed with a phospholipid vesicle preparation. […] The ASP activity can be used to enhance pulmonary administration of pharmaceutically active substances.

[5] = tested on: type II cells; assay: In vitro uptake of 6-carboxy-fluorscein liposomes by freshly isolated type II cells; assay type: cell-based, male Sprague-Dawley rats; conditions: result in words
Description: (§5) The in vitro assay employed in examples 1 and 4 was performed by the following general procedure. Freshly isolated type II cells were prepared by the method of Dobbs, et al., Am. Rev. Respir. Sid. (1986) 134:141-145. Briefly, lungs of specific-pathogen-free male Sprague-Dawley rats weighing 160-180 g (Bantin-Kingman, Fremont, CA) were digested with elastase (Cooper Biomedical, Malverne, PA). The minced digest was filtered through a series of nylon meshes and cells were collected by centrifugation. The cells were then plated on IgG-coated plates and the non-type II cells, which were primarily macrophages and lymophocytes, adhered to the plate over a period of one hour at 37° C. in a 10% CO2 /air incubator. The non-adherent cells were removed by gentle panning and were centrifuged at 130×g for 8 minutes. This cell pellet contained 85±1% type II cells. The viability of the cells as determined by erythrosin B exclusion averaged 97±1%.
(§6) 2.5×10^6 freshly isolated type II cells were suspended in 1 ml of MEM-Krebs. The concentration of calcium was […]. […] Zero time values were determined by centrifugation and washing of the cells immediately after addition of liposomes. […] The final cell pellet was resuspended in 0.5 ml of MEM-Krebs; 0.3 ml was analyzed for radioactivity in a Beckman LS-75000 scintillation counter. […]

[6] = tested on: type II cells; conditions: result in words; cited from earlier work
[7] = In vivo anesthetized rat model, lung incorporation of radiolabelled Vitamin E, 60 minute timecourse; parameters: species or system Sprague-Dawley rats; conditions: result in words
Description: The serum was extracted with 2:1 chloroform:methanol.
The animals were sacrificed at 0 and 60 minutes and the lungs were tested for incorporation of radiolabelled Vitamin E as described above, with the following results: […]

[8] = tested on: type II cells; assay: In vitro uptake of Vitamin E liposomes by freshly isolated type II cells; assay type: cell-based, male Sprague-Dawley rats; conditions: result in words
Description: as §5, §6

[9] = 24 hour timecourse, result in words

## N=C(N)c1ccc(OCCCCCOc2ccc(C(=N)N)cc2)cc1 [Pentamidine isethionate, pentamidine isethionate]
[1]
  toxicity: quite toxic if given systemically

## Vitamin E [reference compound]
[2]; rat, in vivo
  amount of radiolabelled Vitamin E in the lung, with vs. without SP-A: comparable in experimental and control animals
[3]; rat, in vivo
  serum radiolabelled Vitamin E, with vs. without SP-A: The same non-specific effect is also seen in the serum

## alveolar surfactant protein SP-A: relatively high molecular weight (of the order of 32 kD) apoprotein associated with the lung surfactant complex; sequence of FIG. 1
[2]; [9]
  effect on transport to the lung: enhances transport to the lung
[4]
  ASP activity: show ASP activity in combination as well as independently
[5]
  effect on uptake of liposomes containing 6-carboxy-fluorscein: stimulates the uptake
[6]
  cell specificity of effects: seem specific to type II cells and macrophages
[7]
  effect on transport of the liposomes containing Vitamin E to lung tissue: stimulates the transport of the liposomes containing Vitamin E to lung tissue in a rapid fashion
[8]
  effect on uptake of liposomes containing Vitamin E: stimulates the uptake
[3]; [9]
  effect on serum levels of radiolabelled vitamin E: enhances serum levels of radiolabelled vitamin E

B1: SP-B: the larger of the two hydrophobic proteins, about 18 kD on gels under non-reducing conditions; sequence of FIG. 2 (protein, UniProt P07988 201-279, looked up)
Pulmonary …: FPIPLPYCWLCRALIKRIQAMIPKGALAVAVAQVCRVVPLVAGGICQCLAERYSVILLDTLLGRMLPQLVCRLVLRCSM
modifications: Pulmonary surfactant-associated protein B
[4]
  ASP activity: show ASP activity in combination as well as independently

Reference: US5006343A, “Pulmonary administration of pharmaceutically active substances” (priority 1988, dated 1991)
